We go through 29 compounds from patent US10196363B2, “Dihydropyrimidin-2-one compounds and medical use thereof” (JAPAN TOBACCO INC., priority 2014, dated 2019).

One experiment has as its target T1, human RORγ (Homo sapiens, UniProt P51449).
T1 construct: human RORγ, from Ser253 to Lys518; expressed in transfected cells; host or cells: CHO cells (Chinese hamster ovary), transient co-transfection with pG5-Luc
T1 sequence (P51449 253-518): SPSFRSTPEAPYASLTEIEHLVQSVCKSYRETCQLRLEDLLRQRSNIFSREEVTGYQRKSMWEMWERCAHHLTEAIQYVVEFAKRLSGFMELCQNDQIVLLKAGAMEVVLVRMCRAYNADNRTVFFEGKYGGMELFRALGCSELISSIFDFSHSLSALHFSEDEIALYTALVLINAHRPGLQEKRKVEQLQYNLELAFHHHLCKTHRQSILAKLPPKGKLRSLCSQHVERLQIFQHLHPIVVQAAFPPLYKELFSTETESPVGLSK
The experiment can be described thus: In vitro assay of inhibitory effect against RORγ transcriptional activity (GAL4-hRORγ LBD luciferase reporter gene assay in CHO cells). The format is cell-based. The protocol: (§1) In Vitro Assay of Inhibitory Effect Against RORγ Transcriptional Activity
(§2) Inhibitory effect of a test article on transcriptional activity of RORγ was measured by means of the following reporter gene assay.
(§3) cDNA encoding human and mouse RORγ ligand binding domain (LBD) were obtained based on the sequences of human RORγ (Genebank registered number NM_005060.3) and mouse RORγ (Genebank registered number NM_011281.2) (LBD sequence: human RORγ, from Ser253 to Lys518; mouse RORγ, from Ile251 to Lys516).
(§4) The LBD cDNA of human or mouse RORγ was inserted into pFA-CMV vector (Strategene), which expresses GAL4-DNA binding domain fusion protein. The resulting plasmids are hereinafter referred to as GAL4-hRORγ plasmid and GAL4-mRORγ plasmid, respectively.
(§5) GAL4-hRORγ plasmid or GAL4-mRORγ plasmid was transiently co-transfected into Chinese hamster ovary cells (CHO cells) with pG5-Luc (Promega), a reporter plasmid expressing firefly luciferase depending on GAL4.
(§6) TransIT (Registered trademark) CHO transfection reagent (Mirus) was used to co-transfect GAL4-hRORγ plasmid or GAL4-mRORγ plasmid into CHO cells with pG5-Luc plasmid. One day before the assay, CHO cells were suspended in HAM F-12 Nutrient medium containing 10 v/v % fetal bovine serum and seeded at 6×10^6 cells per 175 cm^2 cell culture flask. Fifty four micro litters of TransIT (Registered trademark) CHO reagent was added into a 15 ml tube containing 1.16 mL of HAM F-12 Nutrient medium without fetal bovine serum, and mixed and incubated at room temperature for 10 min. Thirty six micro litters of plasmid solution containing the GAL4-hRORγ plasmid (400 ng), pG5-Luc plasmid (9000 ng) and pcDNA3 plasmid (8600 ng) were added into the tube and mixed gently. In case of mouse assay, a plasmid solution containing the GAL4-mRORγ plasmid (250 ng), pG5-Luc plasmid (9000 ng) and pcDNA3 plasmid (8750 ng) was added, instead. The mixture was incubated at room temperature for 10 min. Nine micro litters of CHO Mojo Reagent were then added into each tube and mixed gently. The mixture was incubated at room temperature for 10 min. The resultant transfection reagent was applied to the cell culture. After incubation at 37° C., 5% CO2 for 4 hours, the plasmid-transfected CHO cells were harvested with a trypsin treatment. The collected cells were resuspended in HAM F-12 Nutrient medium supplemented with 10 v/v % fetal bovine serum and plated into a 384-well-white plate at 8,000 cells/50 μL/well. The plate was incubated at room temperature for 1 hour and then further incubated at 37° C., 5% CO2 for 3 hours. The test articles were dissolved in dimethylsulfoxide (DMSO) to obtain a concentration of 10 mM. The resulting solution was diluted with a medium just before use and added to the cells in the plate to prepare 8 different concentrations of the test article. The final concentration of DMSO was 0.2 v/v %. After the addition of the test articles, the cells were incubated at 37° C., 5% CO2 for 2 days.
(§7) RORγ transcriptional activity was detected as the intracellular luciferase activity using SteadyLite HTS Reporter Gene Assay System (Perkin Elmer). StedyLite Reagent was diluted five-fold into a solution containing Extension reagent (10 mM Tricine, 0.2% w/v BSA, 0.02% v/v Tween-20) to obtain the luciferase substrate solution. After the measurement of the cell viability using Resazurin, the culture media in the plate were removed, and then the luciferase substrate solution was added into each well. After the incubation at room temperature for 10 minutes, luminescence of each well was measured by a microplate reader. The luciferase activity derived from the luminescence count in the vehicle-control well treated with 0.2% DMSO alone was defined as 100%, and the luciferase activity in the test article was calculated as a percentage (%-of-control) based on the value of the vehicle-control. EC50 value of test article was calculated by curve fitting with GraphPad Prism. […]

For the next experiment, the target named is T2, mouse RORγ (Mus musculus, UniProt P51450).
T2 construct: mouse RORγ, from Ile251 to Lys516; expressed in transfected cells; host or cells: CHO cells (Chinese hamster ovary), transient co-transfection with pG5-Luc
T2 sequence (P51450 251-516): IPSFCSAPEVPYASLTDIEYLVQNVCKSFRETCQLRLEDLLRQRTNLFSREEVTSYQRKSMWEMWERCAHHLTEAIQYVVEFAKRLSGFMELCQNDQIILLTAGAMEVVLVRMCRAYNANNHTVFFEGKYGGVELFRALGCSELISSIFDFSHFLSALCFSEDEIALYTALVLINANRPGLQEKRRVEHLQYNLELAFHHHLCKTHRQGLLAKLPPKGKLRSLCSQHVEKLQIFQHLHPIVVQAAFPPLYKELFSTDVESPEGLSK
The experiment can be described thus: In vitro assay of inhibitory effect against RORγ transcriptional activity (GAL4-mRORγ LBD luciferase reporter gene assay in CHO cells). The format is cell-based. The protocol: as §1, §2, §3, §4, §5, §6, §7

Where [1] appears, read: GAL4-hRORγ LBD luciferase reporter, CHO cells, read-out: LUC EC50 hRORγ.
[2] abbreviates: GAL4-mRORγ LBD luciferase reporter, CHO cells, read-out: LUC EC50 mRORγ.
Setting [3] is: GAL4-hRORγ LBD / pG5-Luc in CHO cells, 2 days incubation.
[4] abbreviates: GAL4-mRORγ LBD / pG5-Luc in CHO cells, 2 days incubation.
The mark [5] stands for this setting: value in parentheses beside the > EC50 bound, vehicle-control 0.2% DMSO alone = 100%.

Like-named read-outs stand apart in the source and are kept apart here.

Regarding `COCCC1=CN(CCC(=O)O)C(=O)N[C@@]1(C)c1ccc(C2=CCC(C)(C)CC2)c(Cl)c1` [Example 331], the EC50 on human RORγ (setting [1]) stood at 14 nM; on mouse RORγ (setting [2]), 8 nM.
For the compound `CC(C)C1=CN(C(C)CCC(=O)O)C(=O)NC1(C)c1ccc(CCC(C)(C)C)c(Cl)c1` (stereo not drawn) [Example 73], the EC50 was 803 nM at human RORγ (setting [3]) and 657 nM at mouse RORγ (setting [4]).
The matching figures for `CC(C)C1=CN(CCC(=O)O)C(=O)N[C@@]1(C)c1ccc(C2CC2C(C)(C)C)c(Cl)c1` (single isomer, unassigned) [Example 170]: 58 nM and 40 nM.
`COCCC1=CN(c2ccc(C(=O)O)c(OC)c2)C(=O)N[C@@]1(C)c1ccc(CC2CCCCC2)c(Cl)c1` [Example 337]: the EC50 at human RORγ (setting [1]) came to 22 nM; on mouse RORγ (setting [2]), 14 nM.
With `CC(C)C1=CN(CCC(=O)O)C(=O)N[C@@]1(C)c1ccc(C2CCCC2)c(Cl)c1` [Example 156], the EC50 at human RORγ (setting [3]) was 520 nM; at mouse RORγ (setting [4]) it was 166 nM.
As for `CC(C)(C)CCc1ccc([C@]2(C)NC(=O)N(CCC(=O)O)C=C2[C@H]2C[C@@H](CO)C2)cc1Cl` [Example 241], the EC50 on human RORγ (setting [1]) stood at 112 nM; at mouse RORγ (setting [2]) it was 247 nM.
As for `CC(C)C1=CN(CCC(=O)O)C(=O)N[C@@]1(C)c1ccc(C2CCC(F)(F)CC2)c(Cl)c1` [Example 328], the EC50 is 35 nM on human RORγ (setting [1]) and 19 nM on mouse RORγ (setting [2]).
Consider `CC(C)C1=CN(CCC(=O)O)C(=O)N[C@@]1(C)c1ccc(CC2CCCC2)c(Cl)c1` [Example 263], for which the EC50 on human RORγ (setting [1]) is 26 nM; on mouse RORγ (setting [2]) it was 18 nM.
The matching figures for `CC(C)C1=CN(CCC(=O)O)C(=O)N[C@@]1(C)c1ccc(CCC(C)(C)CO)c(Cl)c1` [Example 260]: 439 nM and 492 nM.
The matching figures for `CC(C)C1=CN(c2ccc(C(=O)O)cc2)C(=O)N[C@@]1(C)c1cc(F)c(OCC(C)(C)C)c(Cl)c1` [Example 193]: 18 nM and 19 nM.
Consider `CC(C)C1=CN(CCC(=O)O)C(=O)N[C@@]1(C)c1cc(F)c(OCc2ccccc2)c(Cl)c1` [Example 161], for which the 50% effective concentration (EC50) is 154 nM at human RORγ (setting [3]) and 47 nM on mouse RORγ (setting [4]).
On to `CC(C)C1=CN(CCC(=O)O)C(=O)N[C@@]1(C)c1ccc(C2=CCCCC2)c(Cl)c1` [Example 134], for which the results for the EC50 on human RORγ (setting [3]) and at mouse RORγ (setting [4]) were 70 nM and 27 nM, respectively.
Consider `CC(C)C1=CN(C2CCCC2C(=O)O)C(=O)N[C@@]1(C)c1ccc(CCC(C)(C)C)c(Cl)c1` (single isomer, unassigned) [Example 243], for which the EC50 came out at 1220 nM at human RORγ (setting [1]) and 543 nM at mouse RORγ (setting [2]).
The matching figures for `CC(C)C1=CN(CCC(=O)O)C(=O)N[C@@]1(C)c1ccc(C=C2CCOCC2)c(Cl)c1` [Example 289]: 1120 nM and 773 nM.
As for `CC(C)(C)CCc1ccc(C2(C)NC(=O)N([C@H]3C[C@H](C(=O)O)C3)C=C2C(C)(C)CCCO)cc1Cl` (single isomer, unassigned) [Example 180], the EC50 at human RORγ (setting [3]) was found to be 32 nM; on mouse RORγ (setting [4]), 50 nM.
The matching figures for `CC(C)(C)CCc1ccc([C@]2(C)NC(=O)N(CCCC(=O)O)C=C2C2CC2)cc1Cl` [Example 57]: 31 nM and 22 nM.
For the compound `COc1cc(C(=O)O)ccc1N1C=C(C(C)C)[C@](C)(c2ccc(CCC(C)(C)C)c(Cl)c2)NC1=O` [Example 221], the EC50 came out at 25 nM at human RORγ (setting [1]) and 24 nM at mouse RORγ (setting [2]).
With `CC(C)(C)CCc1ccc([C@]2(C)NC(=O)N([C@H]3C[C@H](C(=O)O)C3)C=C2C2CCOCC2)cc1Cl` [Example 100], the values for the EC50 at human RORγ (setting [3]) and at mouse RORγ (setting [4]) were 20 nM and 35 nM, respectively.
As to `CC(C)C1=CN(CCCC(=O)O)C(=O)N[C@]1(C)c1ccc(CCC2CCC2)c(Cl)c1` [Example 109], the EC50 at human RORγ (setting [3]) and on mouse RORγ (setting [4]) was over 8000 nM in each case. Besides, the “hRORγ luciferase activity, %-of-control” value at human RORγ (setting [5]) is “(60%)”. Besides, the “mRORγ luciferase activity, %-of-control” value on mouse RORγ (setting [5]) is “(67%)”.
With `CC(C)CCC1=CN(CCCC(=O)O)C(=O)N[C@]1(C)c1ccc(CCC(C)(C)C)c(Cl)c1` [Example 43], the EC50 on human RORγ (setting [3]) is 564 nM; on mouse RORγ (setting [4]) it was 835 nM.
`CC(C)C1=CN([C@H]2C[C@H](C(=O)O)C2)C(=O)NC1(C)c1ccc(OCC(C)(C)C)c(Cl)c1` (mixture of isomers) [Example 17]: the concentration for a half-maximal effect (EC50) at human RORγ (setting [3]) was 206 nM; on mouse RORγ (setting [4]) it was 153 nM.
The matching figures for `CC(C)CC1=CN(CCC(=O)O)C(=O)N[C@@]1(C)c1ccc(CCC(C)(C)C)c(Cl)c1` [Example 137]: 15 nM and 11 nM.
The like results for `CC(C)C1=CN(CCC(=O)O)C(=O)N[C@@]1(C)c1ccc(OCCC(F)(F)F)c(Cl)c1` [Example 140] were, in that order, 209 nM and 139 nM.
`CC(C)(C)CCc1ccc(C2(C)NC(=O)N(CCCC(=O)O)C=C2CC(C)(C)C)cc1Cl` (racemic) [Example 23]: the EC50 is 42 nM on human RORγ (setting [3]) and 41 nM on mouse RORγ (setting [4]).
In the case of `CC(C)C1=CN(CCC(=O)O)C(=O)N[C@@]1(C)c1ccc(CCC(C)(C)C)cc1` [Example 253], the EC50 on human RORγ (setting [1]) is 75 nM; at mouse RORγ (setting [2]), 34 nM.
With `CC(C)(C)CCc1ccc(C2(C)NC(=O)N(CCCC(=O)O)C=C2C2CN(S(C)(=O)=O)C2)cc1Cl` (racemic) [Example 81], the EC50 came out at 2580 nM on human RORγ (setting [3]) and 2490 nM on mouse RORγ (setting [4]).
On to `CC(C)C1=CN(CCC(=O)O)C(=O)N[C@@]1(C)c1ccc(C2=CCC(C)(C)CC2)c(Cl)c1` [Example 116, 3-{(S)-4-[3-chloro-4-(4,4-dimethyl-cyclohex-1-enyl)-phenyl]-5-isopropyl-4-methyl-2-oxo-3,4-dihydro-2H-pyrimidin-1-yl}-propionic Acid], for which the EC50 on human RORγ (setting [3]) worked out at 15 nM; on mouse RORγ (setting [4]), 22 nM.
The matching figures for `CC(C)C1=CN(CCC(=O)O)C(=O)N[C@@]1(C)c1ccc(C2CCC2)c(Cl)c1` [Example 153]: 327 nM and 116 nM.
Take `COC(=O)[C@H]1C[C@H](N2C=C(C(C)(C)CCCO)[C@](C)(c3ccc(CCC(C)(C)C)c(Cl)c3)NC2=O)C1` (single isomer, unassigned) [Example 191]: the EC50 on human RORγ (setting [1]) amounted to 45 nM; on mouse RORγ (setting [2]), 71 nM.
